According to patent US20180008612A1 (priority 2016, published 2018):
Values joined by “and” are separate entries in the source; they are usually repeats but may differ in a detail not shown here. Equal entries are not always repeated. Where two headings read alike, the source gives them in different places.

Legend:
[1] = Antioxidant effect on galantamine stability under normal and stress conditions; format: physicochemical
[2] = Skin permeation, Franz diffusion cells; format: in vitro ADME, human; settings: for Enhancement Ratio: human
Procedure: The flux can be measured with a standard procedure using Franz diffusion cells, and the experiments were done on human cadaver skin. With Franz cells, in each Franz diffusion cell a disc (diameter of 25 mm) of human cadaver skin is placed on the receptor compartment. A transdermal delivery system is cut the same size as the skin and placed over the diffusion area in the center of the receptor. The donor compartment is then added and clamped to the assembly. At time 0, receptor medium solution 14 mL is added into the receptor compartment and the cell maintained at 32° C. Samples of the receptor compartment are taken periodically to determine the skin flux and analyzed by HPLC.
Skin permeation of various formulations were tested. The results are provided in FIGS. 1, and 2 and Tables 5 and 6. Higher the amount of the galantamine in the adhesives will increase the penetration, but when over the saturation point, the transdermal system will crystalize, and result a low penetration rate.
When adding an enhancer, it might improve the penetration rate. […] When increase the amount of the enhancer, it might not improve the penetration rate.
A co-solvent helps dissolving the drug in the adhesive but it might also help with the penetration rate.

[3] = galantamine with the antioxidant (label), 25′C
[4] = galantamine with the antioxidant (label), 60′C-14 D
[5] = galantamine with the antioxidant (label), 80′C-1 D
[6] = galantamine with the antioxidant (label), 80′C-4 D

Molecule	Total Impurity Amount % [1, 3] [%]	Total Impurity Amount % [1, 4] [%]	Total Impurity Amount % [1, 5] [%]	Total Impurity Amount % [1, 6] [%]	other results
CCCCCCCCCCCCCCCC(=O)OC[C@H](O)[C@H]1OC(=O)C(O)=C1O [Ascorbyl Palmitate, ascorbyl palmitate]	0.12	0.58	0.28	1.13	
O=[N+]([O-])C(Br)(CO)CO [Bronopol, bronopol]	0.18	0.81	0.69	1.82	
Cc1cc(C(C)(C)C)c(O)c(C(C)(C)C)c1 [Butylated Hydroxytoluene (BHT), butylated hydroxytoluene]	0.11	0.33	0.51	1.18	
O=C1O[C@H]([C@H](O)CO)C(O)=C1O [Erythorbic Acid, erythorbic acid]	0.50			0.87	Total Impurity Amount % [1]: 1.35% and 0.74%
CCCCCCCC/C=C\CCCCCCCC(=O)OCC [Ethyl Oleate, ethyl oleate]					Enhancement Ratio ([2]; 3 % w/w): 2
CCCCCCCCCCCCCC(=O)OC(C)C [IPM, isopropyl myristate]					Enhancement Ratio ([2]; 3 % w/w): 2; Enhancement Ratio ([2]; 5 % w/w): 1
OCC(O)CS (stereo not shown) [Monothioglycerol, monothioglycerol]	0.16	1.09	0.51	1.49	
CCCCCCCC/C=C\CCCCCCCC(=O)O [Oleic Acid, oleic acid]					Enhancement Ratio ([2]; 3 % w/w): 1
CC(O)CO (stereo not shown) [Propylene Glycol, propylene glycol]					Enhancement Ratio ([2]; 5 % w/w): 4; Enhancement Ratio ([2]; 10 % w/w): 7
O=S([O-])[O-].[Na+].[Na+] [Sodium Sulfite, sodium sulfite]	0.14			1.69	Total Impurity Amount % [1]: 1.04% and 0.74%
O=S([O-])([O-])=S.[Na+].[Na+] [Sodium Thiosulfate, sodium thiosulfate]					Total Impurity Amount % [1]: 0.13% and 1.02% and 0.67% and 2.20%
O=S([O-])S(=O)(=O)[O-].[Na+].[Na+] [Sodium metabisulfite, sodium metabisulfite]	0.17	0.45	0.14	0.93	
O=S=O [Sulfur Dioxide, sulfur dioxide]	0.16	1.04	0.54	1.83	
CCOCCOCCO [Transcutol P, diethylene glycol monoethyl ether]					penetration rate [2]: improves the penetration rate; Enhancement Ratio ([2]; 5 %): 5; Enhancement Ratio ([2]; 5 % w/w): 4
vitamin E	0.12			1.77	Total Impurity Amount % [1]: 0.84% and 0.69%
